Data reported in patent US10208007B2, “Use of strigolactones and strigolactone analogs for treating proliferative conditions” (The State of Israel, Ministry of Agriculture & Rural …, priority 2011, dated 2019).
“Also recorded” adds a separate entry of the source.

Columns and labels:
A549 = assay: XTT viability assay; assay type: cell-based, human; details: A549, 3 days
Method: (§1) Viability was assayed after 3 days (XTT, ATCC). IC50 concentrations are indicated (Table 3 above).

MDA-MB-436 = assay: XTT viability assay; assay type: cell-based, human; details: MDA-MB-436, 3 days
Method: as §1

HCT116 cells [1] = assay: FACS analysis of phospho-Ser10 Histone-H3; assay type: cell-based, human; details: 2.7% in vehicle controls
Method: Adherent cells were trypsinyzed, washed twice with PBS and filtered through a […] cell sieve. DNA content was assessed by flow cytometry. Cells were seeded at densities of 1.5×10^5 cells (MDA-MB-231, MDA-MB-436), or 4×10^5 cells (MCF-7 and MCF10A), or 2×10^5 cells (SW480, HT-29), or 5×10^5 cells (HCT116), per well in DMEM with 10% FBS in 6-well plate culture dishes. […] After 48 hours, cells were washed twice with PBS (pH 7.4), centrifuged at 360 g for 10 minutes at 4° C., and fixed in chilled ethanol (70%; v/v in PBS) with gentle vortex mixing. To determine their DNA contents, the cells were stained with 40 μg/ml propidium iodide (hereinafter PI) and analyzed using a FACSCalibur flow cytometer and CellQuest analysis software (Becton Dickinson, San Jose, Calif.). Where phosphoHistone-H3 staining was carried out, cells were incubated with polyclonal antibody against phosphoHistone H3 and then with secondary Goat anti-rabbit IgG-conjugated to FITC prior to PI staining.
Chromosome condensation at mitosis is accompanied by phosphorylation of histone H3. Accordingly, in order to determine if cells were arresting at G2 or M phase, HCT116 cells were analyzed for pS10 Histone H3 following strigolactone analogs exposure. […] To further quantify whether the growth inhibition observed in-vitro following strigolactone treatment was due in part to apoptosis, HCT116 cells were dual stained with Annexin V and PI (Prodidium Iodide). Annexin V staining indicate the inversion of the inner leaflet of the plasma membrane an early event of apoptosis. Late apoptosis is characterized by loss of membrane integrity and cells become permeable to PI. […] Cells were incubated for 48 hours and then co-stained with annexin-V and PI (FIG. 12F). Following treatment with 10 ppm and 15 ppm MEB-55, the percentage of late apoptotic cell increased from 3.6% to 62% and 85% respectively (FIG. 12F, lower panel). […] Dual Annexin V/PI staining analysis was also carried out on two other colon cancer cell lines, (SW480, HT29) following strigolactone treatment. Increased apoptosis was also observed in these lines following MEB-55 treatment in a dose dependent manner (FIG. 12D).

MDA-MB-231 = assay: XTT viability after timed exposure and strigolactone removal; assay type: cell-based, human; details: 5 and 10 ppm, XTT at 24 hours
Method: As further detailed herein below in the Experimental section, strigolactones and strigolactone analogs inhibit growth through a G2-phase arrest and cause apoptosis at higher concentrations wherein the GR-24 treatment causes an increase in the percentage of MCF-7 and MDA-MB-231 cells in G2-phase. Cells were treated with strigolactone analogs to determine whether or not they alter cell cycle progression in the same way. Dose dependant increases in the percentage of cells in G2 phase were observed. […] After a total of 24 hours, an XTT assay was carried out.

HCT116 cells [2] = assay: as above; details: Homo sapiens
Method: (§2) At each time point the strigolactone analog was removed and the media was replaced with fresh growth media without strigolactone analog. […] In addition, viability of MDA-MB-231 cells was assessed after 24 hours by using an XTT assay (FIG. 9B). […] After 2, 4 or 24 hours the media was removed, cells were washed and media was replaced with growth media minus strigolactone analog.

U20S cells = assay: as above; details: Homo sapiens
Method: as §2

Saccharomyces cerevisiae = assay: Yeast cell culture growth (OD); assay type: cell-based
Method: Saccharomyces cerevisiae and Candida oleophila yeast cells were grown overnight in a reach nutrient media at 28° C., at 150 rpm. Following, they were diluted to 0.4 OD in low nutrient media (Lily) and were divided into 96 wells. The cells were treated with GR-24 or ST-362, at the indicated concentrations. Cell culture growth was monitored every hour for 17 hours, at 28° C., with gentle shake before each OD read. OD was determined using fluorometer. Statistical differences between curves were analyzed using compareGrowthCurves function from the Statistical Modeling package, statmod (http://bioinf.wehi.edu.au/software/compareCurves/), significance was determined once P≤0.05.

[3] = tested on: MDA-MB-231 breast cancer cells; assay: Xenograft tumor model; assay type: in vivo; details: SCID mice, 10 mg/kg iv twice a week, 4 treatments; for Mean tumor volume: control 24.2±5.57; for Tumor growth: p<0.0015
Method: To establish subcutaneous tumors, actively growing MDA-MB-231 breast cancer cells were harvested and 1.5×10^6 cells in 100 μl PBS were injected into the mammary fat pads of mice (n=15). The lesions were allowed to grow until their average sizes were approximately 4.5 mm×4.5 mm (about 3 weeks). The mice were then randomized into 3 groups for various treatments including vehicle control, and two strigolactone analogs: ST-362 and ST-357. Treatment started at day 1, 10 ppm (10 mg/Kg) twice a week for a total of 4 treatments. ST-362 and ST-357 were administered intravenously (iv). Body weight and tumor measurements were recorded twice weekly. Tumor cross-sectional area was calculated by multiplying the length×width and tumor volume was calculated by cubing the mean value of length and width. Results are summarized and plotted.
Data are expressed as mean±SD. Statistical significance was assessed by one-way ANOVA and Games-Howell Post Hoc test. A value of P<0.05 was considered significant and represents significance compared with untreated controls, unless indicated otherwise. Data was analyzed by Graphpad PRISMS and SPSS.

Compound | IC50 at 72 h (A549) | IC50 at 72 h (MDA-MB-436) | Percentage of cells staining positive for pHistone H3 (HCT116 cells [1]; 5 ppm) | Percentage of cells staining positive for pHistone H3 (HCT116 cells [1]; 7.5 ppm) | Cell viability (MDA-MB-231; 2 hours exposure) | Cell viability (MDA-MB-231; 4 hours exposure, p<0.01) | viability at 10 ppm (HCT116 cells [2]; HCT-116, 1 h) | viability at 20 ppm (HCT116 cells [2]; HCT-116, 1 h) | viability at 10 ppm (HCT116 cells [2]; HCT-116, 4 h) | viability at 20 ppm (HCT116 cells [2]; HCT-116, 4 h) | viability at 10 ppm (U20S cells; 1 h) | viability at 20 ppm (U20S cells; 1 h) | viability at 10 ppm (U20S cells; 4 h) | viability at 20 ppm (U20S cells; 4 h) | Cell culture growth (Saccharomyces cerevisiae; apparent 8 hours after application, 17 hours monitoring) | Mean tumor volume [3] | Tumor growth [3] | viability at 20 ppm (HCT116 cells [2]; HCT-116, 8 h) | Concentrations giving a significant reduction in cell culture growth (Saccharomyces cerevisiae; apparent from the time of application)
CC1=CC(O/C=C2\Cc3c(n(C)c4cc(-c5cccs5)ccc34)C2=O)OC1=O (racemic) [MEB-55, (±) 2E-4-methyl-2-(4-methyl-5-oxo-2,5-dihydrofuran-2-yloxymethylene)-6-thiophen-2-yl-1,4-dihydro-2H-cyclopenta[b]indol-3-one] | 6.9 ppm | 8.3 ppm | 1.45% | 0.9% | No significant changes; also recorded: No changes in cell viability | significant decrease in viability | 75% | 68% | 18% | 0% | 52% | 40% | 0% | 0% | – | – | – | – | –
CC1=C[C@H](O/C=C2/C(=O)O[C@@H]3c4ccccc4C[C@H]23)OC1=O (relative stereo) [GR-24, (3aR*,8bS*,E)-3-(((R*)-4-methyl-5-oxo-2,5-dihydrofuran-2-yloxy)methylene)-3,3a,4,8b-tetrahydro-2H-indeno[1,2-b]furan-2-one] | – | – | – | – | – | – | – | – | – | – | – | – | – | – | significant reduction in cell culture growth | – | – | – | –
CC1=CC(O/C=C2/C(=O)c3c(c4cc(-c5cccs5)ccc4n3C)C2C)OC1=O (stereo not shown) [ST-357, (2E)-1,4-dimethyl-2-((4-methyl-5-oxo-2,5-dihydrofuran-2-yloxy)methylene)-7-(thiophen-2-yl)-1,2-dihydrocyclopenta[b]indol-3(4H)-one] | – | – | 0.7% | 0.3% | – | – | 75% | 63% | – | 50% | 80% | 77% | 62% | 10% | – | 15.9±2.61 mm^3 | effective in inhibiting tumor growth | 10% | –
CC1=CC(O/C=C2/C(=O)c3c(c4cc(-c5scc6c5OCCO6)ccc4n3C)C2C)OC1=O (stereo not shown) [ST-362, (2E)-2-[(2,5-dihydro-4-methyl-5-oxofuran-2-yloxy)methylene]-1,2-dihydro-7-(2,3-dihydrothieno[3,4-b][1,4]dioxin-7-yl)-1,4-dimethyl-cyclopenta[b]indole-3-(4H)-one] | 6.7 ppm | 5.9 ppm | – | – | No significant changes; also recorded: No changes in cell viability | significant decrease in viability | – | – | – | – | – | – | – | – | – | 17.7±4.28 mm^3 | effective in inhibiting tumor growth | – | ≥ 0.1 µM
